Assay results from PubChem BioAssay AID330 (DTP/NCI, 2004).
Several values for one entry are separate records, joined by “and”; a condition that tells them apart may be missing. Equal values may be shown once. Inconclusive results and toxic doses are left out. How the source made its calls: active means survival T/C of 150% or more; inactive means T/C below 125% in these data.

System: P388 leukemia ip, CD2F1 mice, survival T/C
Experiment: NCI In Vivo Anticancer Drug Screen. Data for tumor model P388 Leukemia (intraperitoneal) in CD2F1 (CDF1) mice
Conditions: endpoint: median survival time, higher = longer survival
Procedure, shortened: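 Mice carrying the transplanted tumor received test compound or vehicle. Survival was recorded in each group, and the value is the treated-group measurement divided by that of the vehicle-treated control group.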

[1] = dose: 60.0 mg/kg/injection, schedule: Q01DX005 (ip), vehicle: saline
[2] = dose: 120.0 mg/kg/injection, schedule: Q01DX005 (ip), vehicle: saline
[3] = dose: 50.0 mg/kg/injection, schedule: Q01DX009 (ip), vehicle: saline
[4] = dose: 100.0 mg/kg/injection, schedule: Q01DX009 (ip), vehicle: saline
[5] = dose: 100.0 mg/kg/injection, schedule: Q04DX003 (ip), vehicle: saline with Tween-80
[6] = dose: 200.0 mg/kg/injection, schedule: Q04DX003 (ip), vehicle: saline with Tween-80
[7] = dose: 400.0 mg/kg/injection, schedule: Q04DX003 (ip), vehicle: saline with Tween-80
[8] = dose: 100.0 mg/kg/injection, schedule: Q01DX001 (ip), vehicle: saline
[9] = dose: 200.0 mg/kg/injection, schedule: Q01DX001 (ip), vehicle: saline
[10] = dose: 400.0 mg/kg/injection, schedule: Q01DX001 (ip), vehicle: saline
[11] = dose: 25.0 mg/kg/injection, schedule: Q01DX005 (ip), vehicle: saline with Tween-80
[12] = dose: 50.0 mg/kg/injection, schedule: Q01DX005 (ip), vehicle: saline with Tween-80
[13] = dose: 100.0 mg/kg/injection, schedule: Q01DX005 (ip), vehicle: saline with Tween-80
[14] = dose: 200.0 mg/kg/injection, schedule: Q01DX005 (ip), vehicle: saline with Tween-80

Measured: T/C

COC(=O)[C@@]12OC[C@]34C([C@@H](O)C1O)[C@@]1(C)CC(=O)C(O)=C(C)C1C[C@H]3OC(=O)[C@H](OC(=O)c1cccc(Cl)c1)[C@H]42 (some centres undefined)
inactive: dose: 0.25 mg/kg/injection, schedule: Q01DX005 (ip), vehicle: DMSO 119 % of control | dose: 0.5 mg/kg/injection, schedule: Q01DX005 (ip), vehicle: DMSO 112 % of control | dose: 1.0 mg/kg/injection, schedule: Q01DX005 (ip), vehicle: DMSO 121 % of control and 93 % of control | dose: 2.0 mg/kg/injection, schedule: Q01DX005 (ip), vehicle: DMSO 109 % of control and 110 % of control | dose: 4.0 mg/kg/injection, schedule: Q01DX005 (ip), vehicle: DMSO 105 % of control | dose: 8.0 mg/kg/injection, schedule: Q01DX005 (ip), vehicle: DMSO 101 % of control and 104 % of control | dose: 16.0 mg/kg/injection, schedule: Q01DX005 (ip), vehicle: DMSO 111 % of control | dose: 32.0 mg/kg/injection, schedule: Q01DX005 (ip), vehicle: DMSO 108 % of control

COCCCOC(=O)NCCCCC(N)C(=O)O (centres undefined)
inactive: dose: 50.0 mg/kg/injection, schedule: Q01DX005 (ip), vehicle: saline 98 % of control | dose: 100.0 mg/kg/injection, schedule: Q01DX005 (ip), vehicle: saline 106 % of control | dose: 200.0 mg/kg/injection, schedule: Q01DX005 (ip), vehicle: saline 100 % of control

NCCSc1nc(-c2ccccc2)c(-c2ccccc2)o1
inactive: dose: 50.0 mg/kg/injection, schedule: Q01DX009 (ip), vehicle: Klucel (hydroxypropylcellulose) (HPC) 100 % of control | dose: 100.0 mg/kg/injection, schedule: Q01DX009 (ip), vehicle: Klucel (hydroxypropylcellulose) (HPC) 100 % of control | dose: 200.0 mg/kg/injection, schedule: Q01DX009 (ip), vehicle: Klucel (hydroxypropylcellulose) (HPC) 101 % of control

CCOC(=O)C1=C(C(C)=O)C(c2ccc(OC)c(OC)c2)C(C(C)=O)=C(C(=O)OCC)N1
inactive: [1] 102 % of control | [2] 100 % of control

O=S(=O)(c1ccc(N=Cc2cccs2)cc1)c1ccc(N=Cc2cccs2)cc1
inactive: [3] 99 % of control | [4] 98 % of control | dose: 200.0 mg/kg/injection, schedule: Q01DX009 (ip), vehicle: saline 91 % of control and 95 % of control

CC(C)(C)SC(=O)CC1(O)CCCCC1
inactive: dose: 25.0 mg/kg/injection, schedule: Q04DX002 (ip), vehicle: Klucel (hydroxypropylcellulose) (HPC) 98 % of control | dose: 50.0 mg/kg/injection, schedule: Q04DX002 (ip), vehicle: Klucel (hydroxypropylcellulose) (HPC) 100 % of control | dose: 100.0 mg/kg/injection, schedule: Q04DX002 (ip), vehicle: Klucel (hydroxypropylcellulose) (HPC) 100 % of control

OCC1CC=CCC1 (centres undefined)
inactive: [5] 90 % of control | [6] 100 % of control | [7] 90 % of control

Nc1nc(Br)c(Br)nc1N
inactive: dose: 100.0 mg/kg/injection, schedule: Q04DX003 (ip), vehicle: other 100 % of control | dose: 200.0 mg/kg/injection, schedule: Q04DX003 (ip), vehicle: other 100 % of control | dose: 400.0 mg/kg/injection, schedule: Q04DX003 (ip), vehicle: other 95 % of control

CCN(CC)Cc1cc(C)c(O)c(N=Nc2cc(OC)c(N=Nc3ccc([N+](=O)[O-])cc3)cc2OC)c1C
inactive: [5] 91 % of control | [6] 94 % of control | [7] 94 % of control

C=C1CC[C@H]2C(C)=CC[C@@H]3[C@H](OC(=O)[C@H]3CN(C)C)[C@@H]12
inactive: [8] 98 % of control | [9] 104 % of control | [10] 105 % of control

O=C1NC(c2ccccc2)(c2ccccc2)C(=O)N1CN1CCc2ccccc2C1
inactive: dose: 60.0 mg/kg/injection, schedule: Q01DX005 (ip), vehicle: Klucel (hydroxypropylcellulose) (HPC) 90 % of control | dose: 120.0 mg/kg/injection, schedule: Q01DX005 (ip), vehicle: Klucel (hydroxypropylcellulose) (HPC) 91 % of control | dose: 240.0 mg/kg/injection, schedule: Q01DX005 (ip), vehicle: Klucel (hydroxypropylcellulose) (HPC) 90 % of control

CC1=CN2C(c3cccc([N+](=O)[O-])c3)=NON(c3ccc(C)cn3)C2C=C1 (centres undefined)
inactive: dose: 60.0 mg/kg/injection, schedule: Q01DX005 (ip), vehicle: saline with Tween-80 87 % of control | dose: 120.0 mg/kg/injection, schedule: Q01DX005 (ip), vehicle: saline with Tween-80 86 % of control | dose: 240.0 mg/kg/injection, schedule: Q01DX005 (ip), vehicle: saline with Tween-80 92 % of control

Cc1cc2c(cc1C)C(=O)C(Br)=C(N)C2=O
inactive: [11] 94 % of control | [12] 100 % of control and 91 % of control | [13] 87 % of control | [14] 92 % of control

Cc1cc(NCCCCCCNc2cc(C)[n+](C)c3c(Cl)cccc23)c2cccc(Cl)c2[n+]1C
inactive: dose: 3.12 mg/kg/injection, schedule: Q01DX005 (ip), vehicle: suspension in saline 108 % of control | dose: 6.25 mg/kg/injection, schedule: Q01DX005 (ip), vehicle: suspension in saline 99 % of control | dose: 12.5 mg/kg/injection, schedule: Q01DX005 (ip), vehicle: suspension in saline 108 % of control

CC12CCC(=O)OC1(CO)C([Se]c1ccccc1)CC2CC(N)=O (centres undefined)
inactive: [12] 93 % of control | [13] 91 % of control | [14] 91 % of control

CC(O)C(NC(=O)OCC1c2ccccc2-c2ccccc21)C(=O)O (centres undefined)
inactive: dose: 50.0 mg/kg/injection, schedule: Q01DX005 (ip), vehicle: Klucel (hydroxypropylcellulose) (HPC) 104 % of control | dose: 100.0 mg/kg/injection, schedule: Q01DX005 (ip), vehicle: Klucel (hydroxypropylcellulose) (HPC) 100 % of control | dose: 200.0 mg/kg/injection, schedule: Q01DX005 (ip), vehicle: Klucel (hydroxypropylcellulose) (HPC) 107 % of control

N/C(Cc1noc2ccccc12)=N\O
inactive: [3] 109 % of control | [4] 107 % of control

CN(C)CC(CN(C)C)C(O)c1ccccc1 (centres undefined)
inactive: [1] 109 % of control | [2] 100 % of control | dose: 240.0 mg/kg/injection, schedule: Q01DX005 (ip), vehicle: saline 109 % of control

CC1CC=[N+]([O-])C1(C)C (centres undefined)
inactive: dose: 12.5 mg/kg/injection, schedule: Q01DX009 (ip), vehicle: saline with Tween-80 95 % of control | dose: 25.0 mg/kg/injection, schedule: Q01DX009 (ip), vehicle: saline with Tween-80 102 % of control | dose: 50.0 mg/kg/injection, schedule: Q01DX009 (ip), vehicle: saline with Tween-80 102 % of control and 86 % of control

CS(=O)(=O)Oc1ccc2c(c1)CCC2
inactive: dose: 50.0 mg/kg/injection, schedule: Q04DX003 (ip), vehicle: saline 99 % of control | dose: 100.0 mg/kg/injection, schedule: Q04DX003 (ip), vehicle: saline 101 % of control | dose: 200.0 mg/kg/injection, schedule: Q04DX003 (ip), vehicle: saline 108 % of control | dose: 400.0 mg/kg/injection, schedule: Q04DX003 (ip), vehicle: saline 102 % of control

CC(C)(CNCc1ccccc1)COS(=O)(=O)O
inactive: [8] 110 % of control | [9] 105 % of control | [10] 100 % of control

Fc1cccc2c(C#Cc3ccccc3)c3ccccc3c(C#Cc3ccccc3)c12
inactive: dose: 1.5 mg/kg/injection, schedule: Q01DX005 (ip), vehicle: saline with Tween-80 100 % of control | dose: 3.0 mg/kg/injection, schedule: Q01DX005 (ip), vehicle: saline with Tween-80 100 % of control | dose: 6.0 mg/kg/injection, schedule: Q01DX005 (ip), vehicle: saline with Tween-80 97 % of control | [11] 92 % of control | [13] 94 % of control | [14] 87 % of control
